This note sets out measurements from US20130196964A1, “HETEROCYCLICALLY SUBSTITUTED ARYL COMPOUNDS AS HIF INHIBITORS” (BAYER SCHERING PHARMA AKTIENGESELLSCHAFT, priority 2008, published 2013).

One may read the IC50 as the concentration that inhibits the measured activity by half. Read a low IC50 as greater potency in that assay.

Structures can show the parent of a compound that is named as a salt.

For the experiment, the system named is HCT 116 cells transfected with a luciferase reporter under the control of an HIF-responsive sequence. The experiment can be described thus: HIF-luciferase assay. It counts as cell-based. To be noted: Homo sapiens; HCT 116 HIF-luciferase reporter cells, hypoxia chamber (1% O2), 24 h, luminescence. On the procedure:
HCT 116 cells were transfected in a stable manner with a plasmid which contained a luciferase reporter under the control of an HIF-responsive sequence. These cells were sown in microtitre plates [20,000 cells/cavity in RPMI 1640 medium with 10% foetal calf serum (FCS) and 100 μg/ml of hygromycin]. Incubation was carried out overnight under standard conditions (5% CO2, 21% O2, 37° C., moistened). The following morning the cells were incubated with various concentrations of the test substances (0-10 μmol/l) in a hypoxia chamber (1% O2). After 24 h, Bright Glo reagent (Promega, Wis., USA) was added in accordance with the manufacturer'/s instructions, and after 5 min the luminescence was measured. Cells which were incubated under normoxia served as background controls.
`Cc1cc(-c2nc(-c3ccc(OC(F)(F)F)cc3)no2)nn1Cc1ccnc(N2CCC(N(C)C)CC2)c1` [Example 16, N,N-Dimethyl-1-{4-[(5-methyl-3-{3-[4-(trifluoromethoxy)phenyl]-1,2,4-oxadiazol-5-yl}-1H-pyrazol-1-yl)methyl]pyridin-2-yl}piperidin-4-amine]: the IC50 stood at 4 nM.

With `Cc1cc(-c2nc(-c3ccc(OC(F)(F)F)cc3)no2)nn1Cc1ccnc(N2CC(N(C)C)C2)c1` [Example 18], the IC50 worked out at 5 nM.

As to `Cc1cc(-c2nc(-c3ccc(OC(F)(F)F)cc3)no2)nn1Cc1ccnc(N2CCN(C(C)C)CC2)c1` [Example 21], the IC50 was determined as 10 nM.

The compound `Cc1cc(-c2nc(-c3ccc(OC(F)(F)F)cc3)no2)nn1Cc1cccc(C(=O)N2CCN(C3CC3)CC2)c1` [Example 35] showed an IC50 of 2 nM. Against the preceding compound, the IC50 is about 5-fold lower.

Take `Cc1cc(-c2nc(-c3ccc(S(=O)(=O)C(F)(F)F)cc3)no2)nn1Cc1cccc(C(=O)N2CCN(C)CC2)c1` [Example 41]: it took 6 nM to reach half-maximal inhibition (IC50). This IC50 is about 3-fold higher than that of the compound before.

In the case of `Cc1cc(-c2nc(-c3ccc(C4(F)CCOCC4)cc3)no2)nn1Cc1cccc(C(=O)N2CCN(C)CC2)c1` [Example 45], half-maximal inhibition (IC50) was put at 10 nM.

As to `Cc1cc(-c2nc(-c3ccc(OC(F)(F)F)cc3)no2)cn1Cc1cccc(C(=O)N2CCN(C)CC2)c1` [Example 52], half-maximal inhibition (IC50) required 3 nM.

The compound `Cc1cc(-c2nc(-c3ccc(OC(F)(F)F)cc3)no2)nn1Cc1ccnc(N2CCN(C3CC3)CC2)c1` [Example 65, 1-Cyclopropyl-4-{4-[(5-methyl-3-{3-[4-(trifluoromethoxy)phenyl]-1,2,4-oxadiazol-5-yl}-1H-pyrazol-1-yl)methyl]pyridin-2-yl}piperazine] gave a concentration for half-maximal inhibition (IC50) of 0.6 nM. Compared with the last compound, the IC50 is about 5-fold lower.

On to `Cc1cc(-c2nc(-c3ccc(C4CCOCC4)cc3)no2)nn1Cc1ccnc(N2CCN(C3CC3)CC2)c1` [Example 71, 1-Cyclopropyl-4-{4-[(5-methyl-3-{3-[4-(tetrahydro-2H-pyran-4-yl)phenyl]-1,2,4-oxadiazol-5-yl}-1H-pyrazol-1-yl)methyl]pyridin-2-yl}piperazine], for which 1 nM corresponded to half-maximal inhibition (IC50). This IC50 lies about 1.7-fold higher than the previous one.

Compound `Cc1cc(-c2nc(-c3ccc(OC(F)(F)F)cc3)no2)nn1Cc1ccnc(N2CCN(CC(F)(F)F)CC2)c1` [Example 72, 1-{4-[(5-Methyl-3-{3-[4-(trifluoromethoxy)phenyl]-1,2,4-oxadiazol-5-yl}-1H-pyrazol-1-yl)-methyl]pyridin-2-yl}-4-(2,2,2-trifluoroethyl)piperazine] came in with a half-inhibitory concentration (IC50) of 1 nM.

Turning to `Cc1cc(-c2nc(-c3ccc(C(C)(C)C)cc3)no2)nn1Cc1ccnc(N2CCN(C3CC3)CC2)c1` [Example 75, 1-[4-({3-[3-(4-tert-Butylphenyl)-1,2,4-oxadiazol-5-yl]-5-methyl-1H-pyrazol-1-yl}methyl)pyridin-2-yl]-4-cyclopropylpiperazine], inhibition was half-maximal at 1 nM (IC50).

`COCC1(c2ccc(-c3noc(-c4cc(C)n(Cc5ccnc(N6CCN(C7CC7)CC6)c5)n4)n3)cc2)CCC1` [Example 77, 1-Cyclopropyl-4-(4-{[3-(3-{4-[1-(methoxymethyl)cyclobutyl]phenyl}-1,2,4-oxadiazol-5-yl)-5-methyl-1H-pyrazol-1-yl]methyl}pyridin-2-yl)piperazine] showed an IC50 of 1 nM.

Compound `Cc1cc(-c2nc(-c3ccc(C(C)(C)C)cc3)no2)nn1Cc1ccnc(N2CCN(CC(F)(F)F)CC2)c1` [Example 78, 1-[4-({3-[3-(4-tert-Butylphenyl)-1,2,4-oxadiazol-5-yl]-5-methyl-1H-pyrazol-1-yl}methyl)pyridin-2-yl]-4-(2,2,2-trifluoroethyl)piperazine] yielded an IC50 of 0.5 nM.

`Cc1cc(-c2nc(-c3ccc(OC(F)(F)F)cc3)no2)nn1Cc1ccnc(N2CCC(C#N)CC2)c1` [Example 85, 1-{4-[(5-Methyl-3-{3-[4-(trifluoromethoxy)phenyl]-1,2,4-oxadiazol-5-yl}-1H-pyrazol-1-yl)-methyl]pyridin-2-yl}piperidine-4-carbonitrile] showed an IC50 of 2 nM. Compared with the last compound, the IC50 is about 4-fold higher.

As for `Cc1cc(-c2nc(-c3ccc(OC(F)(F)F)cc3)no2)nn1Cc1ccnc(N2CCN(C)C(=O)C2)c1` [Example 86, 1-Methyl-4-{4-[(5-methyl-3-{3-[4-(trifluoromethoxy)phenyl]-1,2,4-oxadiazol-5-yl}-1H-pyrazol-1-yl)methyl]pyridin-2-yl}piperazin-2-one], the IC50 came to 4 nM.

The compound `Cc1cc(-c2nc(-c3ccc(C4(C(F)(F)F)CC4)cc3)no2)nn1Cc1ccnc(N2CCN(C3CC3)CC2)c1` [Example 91, 1-Cyclopropyl-4-(4-{[5-methyl-3-(3-{4-[1-(trifluoromethyl)cyclopropyl]phenyl}-1,2,4-oxadiazol-5-yl)-1H-pyrazol-1-yl]methyl}pyridin-2-yl)piperazine] displayed an IC50 of 0.6 nM.

Turning to `Cc1cc(-c2nc(-c3ccc(OC(F)(F)F)c(F)c3)no2)nn1Cc1ccnc(N2CCN(C3CC3)CC2)c1` [Example 93, 1-Cyclopropyl-4-{4-[(3-{3-[3-fluoro-4-(trifluoromethoxy)phenyl]-1,2,4-oxadiazol-5-yl}-5-methyl-1H-pyrazol-1-yl)methyl]pyridin-2-yl}piperazine], the IC50 is 0.8 nM.

Regarding `Cc1cc(-c2nc(-c3ccc(OC(F)(F)F)cc3)no2)nn1Cc1cccc(C(=O)N2CCCO2)c1` [Example 100, {3-[(5-Methyl-3-{3-[4-(trifluoromethoxy)phenyl]-1,2,4-oxadiazol-5-yl}-1H-pyrazol-1-yl)methyl]-phenyl}(1,2-oxazolidin-2-yl)methanone], the IC50 was determined as 2.5 nM.

In the case of `Cc1cc(-c2nc(-c3cccc(OC(F)(F)F)c3)no2)nn1Cc1cccc(C(=O)N2CCN(C)CC2)c1` [Example 119, (4-Methylpiperazin-1-yl) {3-[(5-methyl-3-{3-[3-(trifluoromethoxy)phenyl]-1,2,4-oxadiazol-5-yl}-1H-pyrazol-1-yl)methyl]phenyl}methanone hydrochloride], the midpoint of inhibition, the IC50, lay at 20 nM. This IC50 is about 8-fold higher than that of the compound before.

The compound `Cc1cc(-c2nc(-c3ccc(C4(C(F)(F)F)CC4)cc3)no2)nn1Cc1cccc(C(=O)N2CCN(C)CC2)c1` [Example 137, (4-Methylpiperazin-1-yl)(3-{[5-methyl-3-(3-{4-[1-(trifluoromethyl)cyclopropyl]phenyl}-1,2,4-oxadiazol-5-yl)-1H-pyrazol-1-yl]methyl}phenyl)methanone] displayed an IC50 of 3 nM.

Consider `Cc1cc(-c2nc(-c3ccc(C(C)(C)C(F)(F)F)cc3)no2)nn1Cc1cccc(S(=O)(=O)N2CCC(O)CC2)c1` [Example 140, 1-({3-[(5-Methyl-3-{3-[4-(1,1,1-trifluoro-2-methylpropan-2-yl)phenyl]-1,2,4-oxadiazol-5-yl}-1H-pyrazol-1-yl)methyl]phenyl}sulfonyl)piperidin-4-ol], for which inhibition was half-maximal at 4 nM (IC50).

The compound `COC1CCN(c2cc(Cn3nc(-c4nc(-c5ccc(OC(F)(F)F)cc5)no4)cc3C)ccn2)CC1` [Example 150, 2-(4-Methoxypiperidin-1-yl)-4-[(5-methyl-3-{3-[4-(trifluoromethoxy)phenyl]-1,2,4-oxadiazol-5-yl}-1H-pyrazol-1-yl)methyl]pyridine] yielded a 50% inhibitory concentration (IC50) of 3 nM.
